{"source": "paper doi:10.1101/2021.10.07.463234v2", "about": "(biorxiv, 2021)", "note": "Structures can show the parent of a compound that is named as a salt.", "data": [{"biological_target": "SARS-CoV-2 Mac1 (Severe acute respiratory syndrome coronavirus 2, UniProt P0DTD1)", "assay": "biochemical", "conditions": "100 µM; inhibitor", "units": {"%inhibition": "%"}, "values": [{"smiles": "COCCCN1CCC(NC(=O)c2cc(Cl)c(N)c3c2OCC3)CC1", "note": "[Prucalopride Succinate]", "%inhibition": 23.93}, {"smiles": "COCCCN1CCC(NC(=O)c2cc(Cl)c(N)c3c2OCC3)CC1", "note": "[Prucalopride]", "%inhibition": 8.754}, {"smiles": "COc1cc(Nc2ncc(F)c(Nc3ccc4c(n3)N(COP(=O)(O)O)C(=O)C(C)(C)O4)n2)cc(OC)c1OC", "note": "[R788 (Fostamatinib) Disodium]", "%inhibition": 15.48}, {"smiles": "COCCCOc1ccnc(C[S+]([O-])c2nc3ccccc3[nH]2)c1C", "note": "(centres unmarked) [Rabeprazole]", "%inhibition": 0.1163}, {"smiles": "Cc1nnc(C(=O)NC(C)(C)c2nc(C(=O)NCc3ccc(F)cc3)c(O)c(=O)n2C)o1", "note": "[Raltegravir (MK-0518)]", "%inhibition": 3.868}, {"smiles": "Cc1nnc(C(=O)NC(C)(C)c2nc(C(=O)NCc3ccc(F)cc3)c(O)c(=O)n2C)o1", "note": "[Raltegravir potassium]", "%inhibition": 7.113}, {"smiles": "COc1ccccc1OCC(O)CN1CCN(CC(=O)Nc2c(C)cccc2C)CC1", "note": "(centres unmarked) [Ranolazine 2HCl]", "%inhibition": 0}, {"smiles": "COc1ccccc1OCC(O)CN1CCN(CC(=O)Nc2c(C)cccc2C)CC1", "note": "(centres unmarked) [Ranolazine]", "%inhibition": 11.36}, {"smiles": "COCCCOc1ccnc(C[S+]([O-])c2nc3ccccc3[nH]2)c1C", "note": "(centres unmarked) [Rebeprazole sodium]", "%inhibition": 0}, {"smiles": "CNC(=O)c1cc(Oc2ccc(NC(=O)Nc3ccc(Cl)c(C(F)(F)F)c3)c(F)c2)ccn1", "note": "[Regorafenib (BAY 73-4506)]", "%inhibition": 2.978}, {"smiles": "CNC(=O)c1cc(Oc2ccc(NC(=O)Nc3ccc(Cl)c(C(F)(F)F)c3)c(F)c2)ccn1", "note": "[Regorafenib Monohydrate]", "%inhibition": 0}, {"smiles": "CCOC(=O)Nc1ccc(NCc2ccc(F)cc2)cc1N", "note": "[Retigabine 2HCl]", "%inhibition": 8.664}, {"smiles": "CCOC(=O)Nc1ccc(NCc2ccc(F)cc2)cc1N", "note": "[Retigabine]", "%inhibition": 0}]}, {"biological_target": "SARS-CoV-2 Mac1 (Severe acute respiratory syndrome coronavirus 2, UniProt P0DTD1)", "assay": "biochemical", "conditions": "read-out: %inhibition", "units": {"inhibition at 100 µM": "%"}, "values": [{"smiles": "O=C(O)CCc1nc2ccccc2[nH]1", "note": "[Procodazole]", "inhibition at 100 µM": 7.67}, {"smiles": "OC(CCN1CCCC1)(c1ccccc1)C1CCCCC1", "note": "(centres unmarked) [Procyclidine HCl]", "inhibition at 100 µM": 6.52}, {"smiles": "Nc1ccc2cc3ccc(N)cc3nc2c1", "note": "[Proflavine Hemisulfate]", "inhibition at 100 µM": 0}, {"smiles": "CC(=O)[C@H]1CC[C@H]2[C@@H]3CCC4=CC(=O)CC[C@]4(C)[C@H]3CC[C@]12C", "note": "[Progesterone]", "inhibition at 100 µM": 1.73}, {"smiles": "CN(C)CCCN1c2ccccc2Sc2ccccc21", "note": "[Promazine hydrochloride]", "inhibition at 100 µM": 0}, {"smiles": "CC(CN1c2ccccc2Sc2ccccc21)N(C)C", "note": "(centres unmarked) [Promethazine HCl]", "inhibition at 100 µM": 0}, {"smiles": "CCCNCC(O)COc1ccccc1C(=O)CCc1ccccc1", "note": "(centres unmarked) [Propafenone HCl]", "inhibition at 100 µM": 0}, {"smiles": "CC(C)[N+](C)(CCOC(=O)C1c2ccccc2Oc2ccccc21)C(C)C", "note": "[Propantheline bromide]", "inhibition at 100 µM": 0}, {"smiles": "CCCOc1ccc(C(=O)OCCN(CC)CC)cc1N", "note": "[Proparacaine HCl]", "inhibition at 100 µM": 13}, {"smiles": "CCCOC(C(=O)OC1CCN(C)CC1)(c1ccccc1)c1ccccc1", "note": "[Propiverine hydrochloride]", "inhibition at 100 µM": 21.7}, {"smiles": "CC(C)c1cccc(C(C)C)c1O", "note": "[Propofol]", "inhibition at 100 µM": 19.3}, {"smiles": "CCCc1cc(=O)[nH]c(=S)[nH]1", "note": "[Propylthiouracil]", "inhibition at 100 µM": 11.2}, {"smiles": "Cc1c(C(C)C)c(=O)n(-c2ccccc2)n1C", "note": "[Propyphenazone (4-Isopropylantipyrine)]", "inhibition at 100 µM": 0}, {"smiles": "CCCCC[C@H](O)/C=C/[C@H]1[C@H](O)CC(=O)[C@@H]1C/C=C\\CCCC(=O)O", "note": "[Prostaglandin E2 (PGE2)]", "inhibition at 100 µM": 8.12}, {"smiles": "CCCc1cc(C(N)=S)ccn1", "note": "[Protionamide]", "inhibition at 100 µM": 50.9}, {"smiles": "NC(=O)[C@@H]1CCCN1C(=O)[C@H](Cc1c[nH]cn1)NC(=O)[C@@H]1CCC(=O)N1", "note": "[Protirelin]", "inhibition at 100 µM": 0}, {"smiles": "CC(O)Cn1cnc2c1c(=O)n(C)c(=O)n2C", "note": "(centres unmarked) [Proxyphylline]", "inhibition at 100 µM": 1.62}, {"smiles": "COc1ccc(C[C@H](N)C(=O)N[C@H]2[C@@H](O)[C@H](n3cnc4c(N(C)C)ncnc43)O[C@@H]2CO)cc1", "note": "[Puromycin 2HCl]", "inhibition at 100 µM": 4.39}, {"smiles": "NC(=O)c1cnccn1", "note": "[Pyrazinamide]", "inhibition at 100 µM": 24.2}, {"smiles": "CN(C)C(=O)Oc1ccc[n+](C)c1", "note": "[Pyridostigmine Bromide]", "inhibition at 100 µM": 0}, {"smiles": "Cc1ncc(COP(=O)(O)O)c(C=O)c1O", "note": "[Pyridoxal phosphate]", "inhibition at 100 µM": 0}, {"smiles": "Cc1ncc(CO)c(CO)c1O", "note": "[Pyridoxine]", "inhibition at 100 µM": 0}, {"smiles": "COc1ccc(CN(CCN(C)C)c2ccccn2)cc1", "note": "[Pyrilamine Maleate]", "inhibition at 100 µM": 5.37}, {"smiles": "CCc1nc(N)nc(N)c1-c1ccc(Cl)cc1", "note": "[Pyrimethamine]", "inhibition at 100 µM": 3.53}, {"smiles": "CCOC(=O)[C@H](CCc1ccccc1)N[C@@H](C)C(=O)N1Cc2ccccc2C[C@H]1C(=O)O", "note": "[Quinapril HCl]", "inhibition at 100 µM": 25}, {"smiles": "C#C[C@]1(O)CC[C@H]2[C@@H]3CCc4cc(OC5CCCC5)ccc4[C@H]3CC[C@@]21C", "note": "[Quinestrol]", "inhibition at 100 µM": 0}, {"smiles": "C=C[C@H]1CN2CC[C@H]1C[C@@H]2[C@@H](O)c1ccnc2ccc(OC)cc12", "note": "[Quinidine sulfate]", "inhibition at 100 µM": 0}, {"smiles": "C=C[C@H]1CN2CC[C@H]1C[C@H]2[C@H](O)c1ccnc2ccc(OC)cc12", "note": "[Quinine HCl Dihydrate]", "inhibition at 100 µM": 0}, {"smiles": "Cn1cc(CNCC2CCN(c3ncc(C(=O)NO)cn3)CC2)c2ccccc21", "note": "[Quisinostat (JNJ-26481585) 2HCl]", "inhibition at 100 µM": 0}, {"smiles": "CC(C)(C)c1cc(NC(=O)Nc2ccc(-c3cn4c(n3)sc3cc(OCCN5CCOCC5)ccc34)cc2)no1", "note": "[Quizartinib (AC220)]", "inhibition at 100 µM": 0}, {"smiles": "CC(=O)SCC(Cc1ccccc1)C(=O)NCC(=O)OCc1ccccc1", "note": "(centres unmarked) [Racecadotril]", "inhibition at 100 µM": 0}, {"smiles": "CC(CCc1ccc(O)cc1)NCC(O)c1ccc(O)cc1", "note": "(centres unmarked) [Ractopamine HCl]", "inhibition at 100 µM": 0}, {"smiles": "Cc1cn(-c2cc(NC(=O)c3ccc(C)c(Nc4nccc(-c5cnccn5)n4)c3)cc(C(F)(F)F)c2)cn1", "note": "[Radotinib]", "inhibition at 100 µM": 1.77}, {"smiles": "CC(C)(C)Cn1c(N)nc2ccc(-c3[nH]c(C(C)(C)C)nc3-c3ccc(F)cc3)nc21", "note": "[Ralimetinib (LY2228820)]", "inhibition at 100 µM": 0.925}, {"smiles": "O=C(c1ccc(OCCN2CCCCC2)cc1)c1c(-c2ccc(O)cc2)sc2cc(O)ccc12", "note": "[Raloxifene HCl]", "inhibition at 100 µM": 63.1}, {"smiles": "Cc1nc(=O)c2cc(CN(C)c3ccc(C(=O)N[C@@H](CCC(=O)O)C(=O)O)s3)ccc2[nH]1", "note": "[Raltitrexed]", "inhibition at 100 µM": 24.8}, {"smiles": "O=C(O)CCn1c2c(c3ccccc31)C[C@H](NS(=O)(=O)c1ccc(F)cc1)CC2", "note": "[Ramatroban]", "inhibition at 100 µM": 4.2}, {"smiles": "CCC(=O)NCC[C@@H]1CCc2ccc3c(c21)CCO3", "note": "[Ramelteon]", "inhibition at 100 µM": 21}, {"smiles": "CCOC(=O)[C@H](CCc1ccccc1)N[C@@H](C)C(=O)N1[C@H](C(=O)O)C[C@@H]2CCC[C@@H]21", "note": "[Ramipril]", "inhibition at 100 µM": 0}, {"smiles": "Cn1cc(C(=O)[C@@H]2CCc3[nH]cnc3C2)c2ccccc21", "note": "[Ramosetron Hydrochloride]", "inhibition at 100 µM": 0}, {"smiles": "CNC(=C[N+](=O)[O-])NCCSCc1ccc(CN(C)C)o1", "note": "[Ranitidine Hydrochloride]", "inhibition at 100 µM": 10.7}, {"smiles": "CO[C@H]1C[C@@H]2CC[C@@H](C)[C@@](O)(O2)C(=O)C(=O)N2CCCC[C@H]2C(=O)O[C@H]([C@H](C)C[C@@H]2CC[C@@H](O)[C@H](OC)C2)CC(=O)[C@H](C)/C=C(\\C)[C@@H](O)[C@@H](OC)C(=O)[C@H](C)C[C@H](C)/C=C/C=C/C=C/1C", "note": "[Rapamycin (Sirolimus)]", "inhibition at 100 µM": 30.7}, {"smiles": "C#CCN[C@@H]1CCc2ccccc21", "note": "[Rasagiline Mesylate]", "inhibition at 100 µM": 0}, {"smiles": "O=C(NC(Cc1cc(=O)[nH]c2ccccc12)C(=O)O)c1ccc(Cl)cc1", "note": "(centres unmarked) [Rebamipide]", "inhibition at 100 µM": 0}, {"smiles": "CNC(=O)c1cnn(-c2nc(N)c3ncn([C@@H]4O[C@H](CO)[C@@H](O)[C@H]4O)c3n2)c1", "note": "[Regadenoson]", "inhibition at 100 µM": 0}, {"smiles": "CCOc1cc(CC(=O)N[C@@H](CC(C)C)c2ccccc2N2CCCCC2)ccc1C(=O)O", "note": "[Repaglinide]", "inhibition at 100 µM": 0}, {"smiles": "COC(=O)[C@H]1[C@H]2C[C@@H]3c4[nH]c5cc(OC)ccc5c4CCN3C[C@H]2C[C@@H](OC(=O)c2cc(OC)c(OC)c(OC)c2)[C@@H]1OC", "note": "[Reserpine]", "inhibition at 100 µM": 0}, {"smiles": "CN(C)Cc1ccc(S(=O)(=O)n2ccc(/C=C/C(=O)NO)c2)cc1", "note": "[Resminostat]", "inhibition at 100 µM": 18.5}, {"smiles": "Oc1cccc(O)c1", "note": "[Resorcinol]", "inhibition at 100 µM": 0}, {"smiles": "Oc1ccc(/C=C/c2cc(O)cc(O)c2)cc1", "note": "[Resveratrol]", "inhibition at 100 µM": 0}, {"smiles": "C=C[C@]1(C)C[C@@H](OC(=O)CS[C@@H]2C[C@H]3CC[C@@H](C2)N3C)[C@]2(C)[C@H](C)CC[C@]3(CCC(=O)[C@H]32)[C@@H](C)[C@@H]1O", "note": "[Retapamulin]", "inhibition at 100 µM": 0}, {"smiles": "NC(=O)c1ncn([C@@H]2O[C@H](CO)[C@@H](O)[C@H]2O)n1", "note": "[Ribavirin]", "inhibition at 100 µM": 0.0871}, {"smiles": "CN(C)C(=O)c1cc2cnc(Nc3ccc(N4CCNCC4)cn3)nc2n1C1CCCC1", "note": "[Ribociclib (LEE011)]", "inhibition at 100 µM": 0.852}, {"smiles": "O=C(CCCCCCNC(=O)c1cnc(N(c2ccccc2)c2ccccc2)nc1)NO", "note": "[Ricolinostat (ACY-1215)]", "inhibition at 100 µM": 3.74}, {"smiles": "CO[C@H]1/C=C/O[C@@]2(C)Oc3c(C)c(O)c4c(c3C2=O)C2=NC3(CCN(CC(C)C)CC3)NC2=C(NC(=O)/C(C)=C\\C=C\\[C@H](C)[C@H](O)[C@@H](C)[C@@H](O)[C@@H](C)[C@H](OC(C)=O)[C@@H]1C)C4=O", "note": "[Rifabutin]", "inhibition at 100 µM": 34.6}, {"smiles": "CO[C@H]1/C=C/O[C@@]2(C)Oc3c(C)c(O)c4c(O)c(c(/C=N/N5CCN(C)CC5)c(O)c4c3C2=O)NC(=O)/C(C)=C\\C=C\\[C@H](C)[C@H](O)[C@@H](C)[C@@H](O)[C@@H](C)[C@H](OC(C)=O)[C@@H]1C", "note": "[Rifampin]", "inhibition at 100 µM": 31.3}, {"smiles": "CO[C@H]1/C=C/O[C@@]2(C)Oc3c(C)c(O)c4c(O)c(cc(O)c4c3C2=O)NC(=O)/C(C)=C\\C=C\\[C@H](C)[C@H](O)[C@@H](C)[C@@H](O)[C@@H](C)[C@H](OC(C)=O)[C@@H]1C", "note": "[Rifamycin sodium salt]", "inhibition at 100 µM": 10.7}, {"smiles": "CO[C@H]1/C=C/O[C@@]2(C)Oc3c(C)c(O)c4c(O)c(c(/C=N/N5CCN(C6CCCC6)CC5)c(O)c4c3C2=O)NC(=O)/C(C)=C\\C=C\\[C@H](C)[C@H](O)[C@@H](C)[C@@H](O)[C@@H](C)[C@H](OC(C)=O)[C@@H]1C", "note": "[Rifapentine]", "inhibition at 100 µM": 26.7}]}]}
